Counter-ions that a name gives are not always drawn.
Key:
[1] = Characterization of salt form of compound A (properties of various salts, Table 8); assay type: physicochemical; details: determined by the height of the strongest peak in XRPD
[2] = in vivo; details: male, SD, rat
Procedure: Test objective: by giving test compounds to SD rats via single-dose intravenous and intragastric administration and measuring the concentrations of the test compounds in plasma of rats, the pharmacokinetic characteristics and bioavailability of the test compounds in rats were evaluated.
Test animal: male SD rats, about 220 g, 6-8 weeks old, 6 rats/compound, purchased from Chengdu Ddossy Experimental Animals Co., Ltd.
Test method: on the day of the test, 6 SD rats were randomly grouped according to their body weight; the animals were fasted with water available for 12 to 14 h one day before the administration, and were fed 4 h after the administration; and the administration was performed according to Table 10.
Before and after the administration, 0.1 mL of blood samples were drawn from the orbits of the animals under isoflurane anaesthesia, and placed in an EDTAK2 centrifuge tube. Centrifugation was performed at 5000 rpm at 4° C. for 10 min, and plasma was collected.
Time points for sample collection in G1 and G2 groups comprise 0, 5 min, 15 min, 30 min, 1 h, 2 h, 4 h, 6 h, 8 h and 24 h.
Before analysis and detection, all samples were stored at −80° C.
30 μL of each of plasma samples, standard curve samples and quality control samples was taken, and 200 μL of acetonitrile solution containing an internal standard was added. The resulting mixture was homogeneously mixed by vortex and centrifuged at 4° C. at 12000 rpm for 10 min. 170 μL of the supernatant was taken and placed to a 96-well plate, and LC-MS/MS analysis was performed, wherein the sample size was 0.2 μL.
The main pharmacokinetic parameters were analysed by a non-compartmental model using WinNonlin 8.0 software.

For `C1=Cc2cccc(OC[C@H]3CNCCO3)c2C1.O=S(=O)(O)c1ccccc1` [Benzenesulfonate], the Crystallinity [1] was “Relatively”.

`Cc1nnn([C@@H](c2ccccc2)C2CCN(C(=O)c3cc(-c4nc5cc(NC(=O)[C@@H]6C[C@@H]6F)ccc5o4)ccn3)CC2)n1` [Compound A, (1S,2S)-2-fluoro-N-(2-(2-(4-((R)-(5-methyl-2H-tetrazol-2-yl)(phenyl)methyl)piperidine-1-carbonyl)pyridin-4-yl)benzo[d]oxazol-5-yl)cyclopropane-1-carboxamide] showed a bioavailability [2] of 26.1 ± 6.2%, an AUC ([2]; iv, 2 mg/kg) of 2010 ± 396 ng·h/mL and a Cmax ([2]; iv, 2 mg/kg) of 1460 ± 134 ng/mL. It also gave a half-life ([2]; iv, 2 mg/kg) of 0.897 ± 0.013 h, an AUC ([2]; po, 10 mg/kg) of 2610 ± 620 ng·h/mL and a Cmax ([2]; po, 10 mg/kg) of 715 ± 127 ng/mL. The Tmax ([2]; po, 10 mg/kg) was 1.67 ± 0.58 h and the half-life ([2]; po, 10 mg/kg) was 1.04 ± 0.099 h.

For `O=S(=O)(O)c1ccc2ccccc2c1` [Example 2-naphthalenesulfonate, 2-naphthalenesulfonate], the Crystallinity [1] was “High”.

For `Br` [Hydrobromide], the Crystallinity [1] was “High”.

Reference: patent publication US20240043416A1, “SALT AND CRYSTAL FORM OF HA INHIBITOR COMPOUND” (SICHUAN HAISCO PHARMACEUTICAL CO., LTD., priority 2021, published 2024)
